US5491149A, “Dihydroxypropylamine containing retroviral protease inhibitors” (The Du Pont Merck Pharmaceutical Company, priority 1994, dated 1996)
≈ marks a conversion by molar mass, not a printed value.

Tests used:
[1] = system: HIV(3B) or HIV(RF) in MT-2 human T-cells; experiment: HIV Low Multiplicity Assay (XTT, MT-2 cells); type: cell-based; details: Human immunodeficiency virus 1, MT2, 168 h, 90% protection, multiplicity of infection 0.01, 7 days
Experimental: HIV Low Multiplicity Assby
MT-2, a human T-cell line, was cultured in RPMI medium supplemented with 5% (v/v) heat inactivated fetal calf serum (FCS), L-glutamine and gentamycin (GIBCO). Human immunodeficiency virus strains HIV(3B) and HIV(Rf) were propagated in H-9 cells in RPMI with 5% FCS. XTT, benzene-sulfonic acid, 3,3'-[1-[(phenylamino)carbonyl]-3,4-tetrazolium]bis(4-methoxy-6-nitro)-, sodium salt, was obtained from Starks Associates, Inc.
Test compounds were dissolved in dimethyl-sulfoxide to 5 mg/ml and serially diluted into RPMI medium to ten times the desired final concentration. MT-2 cells (5×10^4 /0.1 ml) were added to each well of a 96 well culture plate and 0.02 ml of the appropriate test compound solution was added to the cells such that each compound concentration was present in two wells. The cells and compounds were allowed to sit for 30 minutes at room temperature. HIV(3B) or HIV(RF) (~5×10^5 plaque forming units/ml) was diluted in medium and added to the cell and compound mixtures to give a multiplicity of infection of 0.01 plaque forming unit/cell. The mixtures were incubated for 7 days at 36° C., during which time the virus replicated and caused the death of unprotected cells. The percentage of cells protected from virus induced cell death was determined by the degree of metabolism of the tetrazolium dye, XTT. In living cells, XTT was metabolized to a colored formazan product which was quantitated spectrophotometrically at 450 nm. The amount of colored formazan was proportional to the number of cells protected from virus by the test compound. The concentration of compound protecting either 50% (IC50) or 90% (IC90) with respect to an uninfected cell culture was determined.

[2] = molecular target: T1, HIV protease (Human immunodeficiency virus type 1 group M subtype B, UniProt P04585); experiment: Cell Free HIV Protease Inhibition Assay (gag polyprotein); type: biochemical; details: HIV gag polyprotein substrate, 30° C.
T1 construct: plasmid containing HIV protease under the control of the T7 promotor; made in house; host or cells: E. coli (crude lysate, lac promoter)
Text: Procedure III: Cell Free Protease Inhibition Assay Materials:
HIV gag polyprotein corresponding to all of p17 and 78 amino acids of p24, produced by in vitro translation using rabbit reticulocyte lysate and mRNA prepared in vitro from plasmid encoding full length gag polyprotein linerized with the restriction enzyme Pst 1. (see S. Erickson-Viitanen et al., AIDS Research and Human Retroviruses, 5 (6), 577 (1989) for plasmid construction, and basis for assay).
Source of protease: Either (A) crude E. coli lysate of bacteria harboring a plasmid containing HIV protease under the control of the lac promotor, used at a final concentration of 0.5 mg/ml, or (B) inclusion bodies of E. coli harboring plasmid containing HIV protease under the control of the T7 promotor (Cheng et al., Gene, in press (1990)). Such inclusion bodies were solubilized in 8M urea, 50 mM Tris pH 8.0. Protease activity was recovered by dilution of the inclusion bodies 20-fold in buffer containing 50 mM Sodium Acetate, pH 5.5, 1 mM EDTA, 10% glycerol and 5% ethylene glycol. This protease source was used at a final concentration of 0.00875 mg/ml.
Inhibitory compounds were dissolved in sufficient DMSO to make a 2.5 mM stock concentration. All further dilutions were done in DMSO.
Into sterile test tubes were placed the following:
14 ul HIV protease in Phosphate Buffered Saline (20 mM Sodium Phosphate, 0.15M NaCl, pH 6.5).
5 μl of in vitro translation products.
Reactions were incubated at 30° C., then quenched by the addition of Sample buffer. See U. K. Laemmli, Nature, 1970, 227:680-685.
One fourth of each sample was analyzed on an 8-16% gradient denaturing acrylamide gel (Novex, Inc), according to Laemmli. Following electrophoresis, gels were fixed, impregnated with Enhance (Du Pont NEN, Boston, Mass.) and dried according to manufacturers instructions (NEN). Dried fluorographs were exposed to film and/or quantitated using an Ambis radioanalytic scanner.
Each group of test compounds was compared to the values obtained for pepstatin, a well known inhibitor of acid proteases . Inhibitory concentration for 50% inhibition (IC50) is determined from plots of log concentration inhibitor versus % inhibition of protease activity.
Biological Activity: IC50 is the concentration necessary for reducing the activity of the enzyme by 50%.

SMILES	IC90 [1] [µg/mL]	IC50 [2] [nM]
CC(C)[C@H](NC(=O)OCc1ccccc1)C(=O)N[C@@H](Cc1ccccc1)[C@H](O)[C@H](O)CN1C[C@H]2CCCC[C@H]2C[C@H]1C(=O)NC(C)(C)C (relative stereo) [Example 3, [3-[2[1R*(R*),2R*,3S*],3a,4ab,8ab]]-(phenylmethyl)[1-[[[4-[3-[[(1,1-dimethylethyl)amino]carbonyl]octahydro-2(1H)-isoquinolinyl-2,3-dihydroxy-1-(phenylmethyl)butyl]amino]carbonyl]-2-methylpropyl]carbamate]	1.7 (≈ 2.56 µM)	2110
CC(C)(C)NC(=O)[C@@H]1C[C@@H]2CCCC[C@@H]2CN1C[C@@H](O)[C@@H](O)[C@H](Cc1ccccc1)NC(=O)[C@H](CC(N)=O)NC(=O)OCc1ccccc1 [Example 1, [3S-[2[1R*(R*),2R*,3S*],3a,4ab,8ab]]-(phenylmethyl)[3-amino-1-[[[4-[3-[[(1,1-dimethylethyl)amino]carbonyl]octahydro-2(1H)-isoquinolinyl]-2,3-dihydroxy-1(phenylmethyl)butyl]amino]carbonyl]-3-oxopropyl]carbamate]	2 (≈ 2.94 µM)	3020
CC(C)(C)NC(=O)[C@@H]1C[C@@H]2CCCC[C@@H]2CN1C[C@@H](O)[C@@H](O)[C@H](Cc1ccccc1)NC(=O)[C@H](CC(N)=O)NC(=O)c1ccc2ccccc2n1 [Example 2, [3S-[2[1R*(R*),2R*,3S*],3a,4ab,8b]]-N1-[4-[3-[[(1,1-dimethylethyl)amino]carbonyl]octahydro-2(1H)-isoquinolinyl]-2,3-dihydroxy-1-(phenylmethyl)butyl]-2-[(2-quinolinylcarbonyl)amino]butanediamide]	0.3 (≈ 0.428 µM)	542
CC[C@H](C)[C@H](NC(=O)OCc1ccccc1)C(=O)N[C@@H](Cc1ccccc1)[C@H](O)[C@H](O)CN1C[C@H]2CCCC[C@H]2C[C@H]1C(=O)NC(C)(C)C [Example 4, [3S-[2[1R*(R*,R*),2R*,3S*],3a,4ab,8ab]]-(phenylmethyl)[1-[[[4-[3-[[(1,1-dimethylethyl)amino]carbonyl]octahydro-2(1H)-isoquinolinyl]-2,3-dihydroxy-1-(phenylmethyl)butyl]amino]carbonyl]-2-methylbutyl]carbamate]	1 (≈ 1.47 µM)	2930
CC(C)(C)NC(=O)[C@@H]1C[C@@H]2CCCC[C@@H]2CN1C[C@H](O)[C@H](O)[C@H](Cc1ccccc1)NC(=O)[C@H](CC(N)=O)NC(=O)OCc1ccccc1 [Example 5, [3S-[2[1R*(R*),2S*,3R*],3a,4ab,8ab]]-(phenylmethyl)[3-amino-1-[[[4-[3-[[(1,1-dimethylethyl)amino]carbonyl]octahydro-2(1H)-isoquinolinyl]-2,3-dihydroxy-1-(phenylmethyl)butyl]amino]carbonyl]-3-oxopropyl]carbamate]	> 30	> 18400
CC(C)(C)NC(=O)[C@@H]1C[C@@H]2CCCC[C@@H]2CN1C[C@H](O)[C@H](O)[C@H](Cc1ccccc1)NC(=O)[C@H](CC(N)=O)NC(=O)c1ccc2ccccc2n1 [Example 6, [3S-[2[1R*(R*),2S*,3R*],3a,4ab,8ab]]-N1-[4-[3-[[(1,1-dimethylethyl)amino]carbonyl]octahydro-2(1H)-isoquinolinyl]-2,3-dihydroxy-1-(phenylmethyl)butyl]-2-[(2-quinolinylcarbonyl)amino]butanediamide]	10 (≈ 14.3 µM)	> 17800
CC(C)(C)NC(=O)[C@@H]1C[C@@H]2CCCC[C@@H]2CN1C[C@H](O)[C@@H](O)[C@H](Cc1ccccc1)NC(=O)[C@H](CC(N)=O)NC(=O)c1ccc2ccccc2n1 [Example 7, [3S-[2[1R*(R*),2R*,3R*],3a,4ab,8ab]]-N1-[4-[3-[[(1,1-dimethylethyl)amino]carbonyl]octahydro-2(1H)-isoquinolinyl]-2,3-dihydroxy-1-(phenylmethyl)butyl]-2-[(2-quinolinylcarbonyl)amino]butanediamide]	2.2 (≈ 3.14 µM)	2840
CC(C)(C)NC(=O)[C@@H]1C[C@@H]2CCCC[C@@H]2CN1C[C@@H](O)[C@H](O)[C@H](Cc1ccccc1)NC(=O)[C@H](CC(N)=O)NC(=O)OCc1ccccc1 [Example 8, [3S-[2[1R*(R*),2S*,3S*],3a,4ab,8ab]]-(phenylmethyl)[3-amino-1-[[[4-[3-[[(1,1-dimethylethyl)amino]carbonyl]octahydro-2(1H)-isoquinolinyl-2,3-dihydroxy-1-(phenylmethyl)butyl]amino]carbonyl]-3-oxopropyl]carbamate]	> 30	> 18400
CC(C)(C)NC(=O)[C@@H]1C[C@@H]2CCCC[C@@H]2CN1C[C@@H](O)[C@H](O)[C@H](Cc1ccccc1)NC(=O)[C@H](CC(N)=O)NC(=O)c1ccc2ccccc2n1 [Example 9, [3S-[2[1R*(R*),2S*,3S*],3a,4ab,8ab]]-N1-[4-[3-[[(1,1-dimethylethyl)amino]carbonyl]octahydro-2(1H)-isoquinolinyl]-2,3-dihydroxy-1-(phenylmethyl)butyl]-2-[(2-quinolinylcarbonyl)amino]butanediamide]	3 (≈ 4.28 µM)	> 17800
